Data set [1] is described as follows: Metabolic stability in human liver microsome assessed as intrinsic clearance preincubated for 10 mins followed by NADPH addition and measured after 60 mins by LC-MS/MS analysis. Type of data set: ADME. As to conditions: liver microsomes, time 70 min, read-out: CLH.
A further data set deals with CYP2C9 (Homo sapiens, UniProt P11712). Kind of data set: Inhibition of CYP2C9 (unknown origin) at 10 uM using diclofenac as substrate incubated for 10 mins in presence of NADPH by LC-MS/MS analysis relative to control. The format is ADME. As to conditions: probe diclofenac.
The target of data set [2] is T1, hERG (KCNH2) (Homo sapiens, UniProt Q12809). Kind of data set: Inhibition of hERG expressed in HEK293 cells at 10 uM at holding potential of -80 mV by whole cell patch clamp assay relative to control. The format is toxicity, cell-based. As to conditions: HEK293 cells expressing hERG. In general terms: hERG is a cardiac potassium channel; its block is linked to QT prolongation.

The target in another data set is CYP2D6 (Homo sapiens, UniProt P10635). Kind of data set: Inhibition of CYP2D6 (unknown origin) at 10 uM using dextromethorphan as substrate incubated for 10 mins in presence of NADPH by LC-MS/MS analysis relative to control. Type of data set: ADME. As to conditions: probe dextromethorphan.
Data set [3] in a line: Water solubility of compound in phosphate buffer at pH 7.4 by HPLC analysis. Type of data set: physicochemical.
A short description of data set [4]: Selectivity index, ratio of CC50 for cytotoxicity against human HePAD38 cells assessed as reduction in cell viability to EC50 for antiviral activity against HBV infected human HePAD38 cells assessed as reduction of HBV DNA level. Type of data set: toxicity, cell-based. Conditions: read-out: Ratio CC50/EC50.
The subject of data set [5] is Hepatitis B virus. Kind of data set: Antiviral activity against HBV infected human HePAD38 cells assessed as reduction in intracellular core protein content at 0.003 uM incubated for 6 days by Western blot analysis. Conditions: time 6.0 day. The format is functional, organism-based. Background: Immunoblotting shows a protein as a band on a membrane.
For data set [6], the system named is Hepatitis B virus. Kind of data set: Antiviral activity against HBV infected human HePAD38 cells assessed as reduction in intracellular core protein content upto 10 uM incubated for 6 days. Type of data set: functional, organism-based. Conditions: time 6.0 day.
The subject of data set [7] is Hepatitis B virus. Kind of data set: Antiviral activity against HBV infected human HePAD38 cells assessed as reduction in intracellular capsid content upto 10 uM incubated for 6 days. The format is functional, organism-based. As to conditions: time 6.0 day.
Data set [8] is described as follows: Metabolic stability in human liver microsome assessed as parent compound remaining preincubated for 10 mins followed by NADPH addition and measured after 60 mins by LC-MS/MS analysis. Type of data set: ADME. Conditions: liver microsomes, time 70 min, read-out: Stability. In general terms: Microsomes from liver hold many membrane-bound enzymes, among them those of drug oxidation.

Another data set concerns the target CYP3A (Homo sapiens, UniProt P08684+P20815+P24462+Q9HB55). Kind of data set: Inhibition of CYP3A (unknown origin) at 10 uM using midazolam as substrate incubated for 10 mins in presence of NADPH by LC-MS/MS analysis relative to control. The format is ADME, protein assay. As to conditions: probe midazolam.
Data set [9] is described as follows: Metabolic stability in human liver assessed as intrinsic clearance preincubated for 10 mins followed by NADPH addition and measured after 60 mins by LC-MS/MS analysis. Type of data set: ADME, tissue-based. Conditions: time 70 min, read-out: CLH.
Data set [10] in a line: Metabolic stability in human liver microsome assessed as half life preincubated for 10 mins followed by NADPH addition and measured after 60 mins by LC-MS/MS analysis. The format is ADME. As to conditions: liver microsomes, time 70 min.
Data set [11] is described as follows: Cytotoxicity against human HePAD38 cells assessed as reduction in cell viability by CCK-8 assay. Type of data set: toxicity, cell-based.
Another data set addresses CYP2C19 (Homo sapiens, UniProt P33261). Kind of data set: Inhibition of CYP2C19 (unknown origin) at 10 uM using s-mephenytoin as substrate incubated for 10 mins in presence of NADPH by LC-MS/MS analysis relative to control. The format is ADME. Conditions: probe S-mephenytoin.
Data set [12] concerns the target T1, hERG (KCNH2). Kind of data set: Inhibition of hERG expressed in HEK293 cells at 1 uM at holding potential of -80 mV by whole cell patch clamp assay relative to control. The format is toxicity, cell-based. As to conditions: HEK293 cells expressing hERG.
The nature of data set [13]: Water solubility of compound in phosphate buffer at pH 7 by HPLC analysis. The format is physicochemical.
A further data set deals with T2, CYP1A2 (Homo sapiens, UniProt P05177).
T2 sequence (P05177 whole entry): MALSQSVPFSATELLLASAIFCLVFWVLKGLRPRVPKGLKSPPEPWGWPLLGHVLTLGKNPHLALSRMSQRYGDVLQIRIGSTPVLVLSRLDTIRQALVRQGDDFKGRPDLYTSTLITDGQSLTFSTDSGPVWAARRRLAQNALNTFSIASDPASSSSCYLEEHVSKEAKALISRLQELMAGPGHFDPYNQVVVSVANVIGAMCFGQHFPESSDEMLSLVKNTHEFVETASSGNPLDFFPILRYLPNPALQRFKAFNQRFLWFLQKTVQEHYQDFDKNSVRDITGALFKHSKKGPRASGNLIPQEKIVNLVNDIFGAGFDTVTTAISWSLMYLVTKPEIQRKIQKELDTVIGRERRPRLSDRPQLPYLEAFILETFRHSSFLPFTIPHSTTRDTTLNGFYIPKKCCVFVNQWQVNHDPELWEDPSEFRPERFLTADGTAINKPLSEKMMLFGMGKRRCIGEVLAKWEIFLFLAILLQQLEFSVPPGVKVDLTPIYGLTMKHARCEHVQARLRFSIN
Kind of data set: Inhibition of CYP1A2 (unknown origin) at 10 uM using phenacetin as substrate incubated for 10 mins in presence of NADPH by LC-MS/MS analysis relative to control. The format is ADME. As to conditions: probe phenacetin.

The subject of data set [14] is Hepatitis B virus. Kind of data set: Antiviral activity against HBV infected human HePAD38 cells assessed as reduction of HBV DNA level with compound replacement for every 3 days and measured on day 6 by qPCR analysis. Type of data set: functional, organism-based.
Data set [15] is described as follows: Water solubility of compound in phosphate buffer at pH 2 by HPLC analysis. Type of data set: physicochemical.
Data set [16] has as its system Hepatitis B virus. Kind of data set: Antiviral activity against HBV infected human HePAD38 cells assessed as reduction in intracellular core protein content at 0.016 uM incubated for 6 days by Western blot analysis. Type of data set: functional, organism-based. Conditions: time 6.0 day.
Data set [17] relates to Hepatitis B virus. Kind of data set: Antiviral activity against HBV infected in human HepG2.2.15 cells assessed as reduction in extracellular HBV DNA level incubated for 8 days by Southern blotting. Type of data set: functional, organism-based. Conditions: HepG2.2.15, 192 h.
Data set [18] relates to Hepatitis B virus. Kind of data set: Antiviral activity against HBV infected human HePAD38 cells assessed as reduction in intracellular core protein content incubated for 6 days by Western blot analysis. The format is functional, organism-based. As to conditions: dose 1.0 µM, time 6.0 day.
The subject of data set [19] is Hepatitis B virus. Kind of data set: Antiviral activity against HBV infected human HePAD38 cells assessed as reduction in intracellular core protein content at 0.08 uM incubated for 6 days by Western blot analysis. The format is functional, organism-based. As to conditions: time 6.0 day.

≈ marks a conversion by molar mass, not a printed value. Calls of active or inactive are those of the source. A value given as a limit tells only on which side of the number the result lay.

This note sets out measurements from ChEMBL document CHEMBL5329208 (RSC Med Chem, 2023).

T1 sequence (Q12809 whole entry): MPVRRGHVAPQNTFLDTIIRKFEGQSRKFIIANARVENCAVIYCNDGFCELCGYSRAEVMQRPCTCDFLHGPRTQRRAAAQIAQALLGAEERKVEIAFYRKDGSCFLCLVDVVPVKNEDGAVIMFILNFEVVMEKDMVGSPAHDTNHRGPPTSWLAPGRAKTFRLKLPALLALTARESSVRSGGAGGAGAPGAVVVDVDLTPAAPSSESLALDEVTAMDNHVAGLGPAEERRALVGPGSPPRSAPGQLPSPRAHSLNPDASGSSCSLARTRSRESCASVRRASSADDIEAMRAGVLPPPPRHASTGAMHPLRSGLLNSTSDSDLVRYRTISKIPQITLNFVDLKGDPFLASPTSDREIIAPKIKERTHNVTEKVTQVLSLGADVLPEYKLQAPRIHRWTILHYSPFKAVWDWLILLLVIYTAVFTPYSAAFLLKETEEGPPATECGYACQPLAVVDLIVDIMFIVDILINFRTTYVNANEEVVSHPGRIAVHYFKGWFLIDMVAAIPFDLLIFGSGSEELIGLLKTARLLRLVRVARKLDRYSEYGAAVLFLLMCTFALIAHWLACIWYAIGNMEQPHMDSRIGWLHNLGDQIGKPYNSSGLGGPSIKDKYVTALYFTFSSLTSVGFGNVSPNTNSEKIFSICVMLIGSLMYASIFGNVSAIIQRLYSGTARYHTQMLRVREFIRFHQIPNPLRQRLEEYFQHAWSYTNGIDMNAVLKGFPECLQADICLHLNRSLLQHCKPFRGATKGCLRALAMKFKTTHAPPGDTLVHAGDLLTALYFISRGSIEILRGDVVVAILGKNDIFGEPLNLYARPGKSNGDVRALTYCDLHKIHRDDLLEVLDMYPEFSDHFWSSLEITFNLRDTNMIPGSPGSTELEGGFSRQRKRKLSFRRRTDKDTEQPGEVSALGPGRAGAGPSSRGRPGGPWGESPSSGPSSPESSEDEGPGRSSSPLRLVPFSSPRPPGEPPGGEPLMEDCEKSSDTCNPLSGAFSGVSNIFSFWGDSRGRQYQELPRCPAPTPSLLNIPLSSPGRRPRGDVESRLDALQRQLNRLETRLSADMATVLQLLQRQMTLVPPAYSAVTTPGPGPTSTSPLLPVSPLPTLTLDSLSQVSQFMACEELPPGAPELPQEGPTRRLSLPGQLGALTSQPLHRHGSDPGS
Sequence of CYP2C19 (P33261 whole entry): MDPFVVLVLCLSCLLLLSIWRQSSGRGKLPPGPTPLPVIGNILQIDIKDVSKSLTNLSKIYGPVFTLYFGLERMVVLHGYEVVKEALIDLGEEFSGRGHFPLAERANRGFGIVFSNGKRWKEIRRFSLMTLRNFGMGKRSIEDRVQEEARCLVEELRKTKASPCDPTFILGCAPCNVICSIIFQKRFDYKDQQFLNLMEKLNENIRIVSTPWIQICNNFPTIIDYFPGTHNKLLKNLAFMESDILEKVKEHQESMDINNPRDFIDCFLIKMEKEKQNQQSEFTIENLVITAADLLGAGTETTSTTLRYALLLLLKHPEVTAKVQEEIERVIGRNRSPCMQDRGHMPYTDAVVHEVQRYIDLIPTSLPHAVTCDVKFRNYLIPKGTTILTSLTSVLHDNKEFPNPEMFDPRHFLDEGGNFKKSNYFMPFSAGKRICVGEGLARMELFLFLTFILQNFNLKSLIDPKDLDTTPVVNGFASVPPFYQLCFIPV
Sequence of CYP2D6 (P10635 whole entry): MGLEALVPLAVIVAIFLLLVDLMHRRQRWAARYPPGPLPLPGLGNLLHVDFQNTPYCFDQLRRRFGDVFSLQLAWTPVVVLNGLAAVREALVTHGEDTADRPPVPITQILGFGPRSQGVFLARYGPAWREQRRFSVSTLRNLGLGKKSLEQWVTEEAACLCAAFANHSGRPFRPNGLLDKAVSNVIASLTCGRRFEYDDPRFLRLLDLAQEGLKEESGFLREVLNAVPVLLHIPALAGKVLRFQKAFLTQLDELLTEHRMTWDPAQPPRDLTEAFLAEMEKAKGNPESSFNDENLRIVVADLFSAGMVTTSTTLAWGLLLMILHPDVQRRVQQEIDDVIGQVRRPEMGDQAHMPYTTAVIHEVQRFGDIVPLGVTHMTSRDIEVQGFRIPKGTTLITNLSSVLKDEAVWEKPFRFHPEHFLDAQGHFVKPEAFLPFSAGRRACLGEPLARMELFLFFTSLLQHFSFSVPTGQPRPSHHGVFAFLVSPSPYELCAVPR
Sequence of CYP2C9 (P11712 whole entry): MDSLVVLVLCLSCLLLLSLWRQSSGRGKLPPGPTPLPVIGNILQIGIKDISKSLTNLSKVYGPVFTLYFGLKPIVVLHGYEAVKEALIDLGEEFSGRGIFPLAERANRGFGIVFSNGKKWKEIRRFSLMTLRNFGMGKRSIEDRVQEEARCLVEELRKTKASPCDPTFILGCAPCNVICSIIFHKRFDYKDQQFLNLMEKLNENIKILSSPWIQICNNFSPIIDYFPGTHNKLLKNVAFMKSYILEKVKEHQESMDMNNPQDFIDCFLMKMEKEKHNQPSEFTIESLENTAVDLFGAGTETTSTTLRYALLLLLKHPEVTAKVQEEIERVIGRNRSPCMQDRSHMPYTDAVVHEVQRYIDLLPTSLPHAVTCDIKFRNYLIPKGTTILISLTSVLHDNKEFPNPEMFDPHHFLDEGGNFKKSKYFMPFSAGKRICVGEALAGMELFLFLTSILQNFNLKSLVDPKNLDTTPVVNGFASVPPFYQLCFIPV

On to `CCOC(=O)C1=C(CN2CCN(C(/C=C/c3ccccc3)C(=O)O)CC2)NC(c2nccs2)=NC1c1ccc(F)cc1Br` (stereo unspecified), for which the microsomal CLint in data set [1] was found to be 14.8 µL/min/mg. In addition, the inhibition at 10 min, 10 µM at CYP2C9 was 26.2%; on CYP2D6 it was 12.4%; on CYP3A it was 44.6%; at CYP2C19, 18.1%; at CYP1A2, 0%. In addition, at hERG (KCNH2) [2], 10 µM produced 93.4% inhibition. The solubility is < 0.58 µg/mL in data set [3], 1.96 µg/mL (≈ 2.93 µM) in [13] and 361 µg/mL (≈ 541 µM) in [15]. Moreover, the selectivity ratio in data set [4] worked out at 1060. For the same molecule, the outcome in the data set with Hepatitis B virus [5], in the data set on Hepatitis B virus [6] and with Hepatitis B virus [7] was Active. Also, the remaining at 1 h in data set [8] stood at 64.6%. Further, the CLint scaled in data set [9] was 13.3 mL/min/kg. Moreover, the half-life in data set [10] worked out at 1.56 h. In addition, the CC50 in [11] worked out at 22400 nM. The molecule also came in with an inhibition at 1 µM on hERG (KCNH2) [12] of 11.7%. The EC50 in the data set with Hepatitis B virus [14] came out at 21 nM.
On to `CCOC(=O)C1=C(CN2CCN(C(C(=O)O)c3cccc([N+](=O)[O-])c3)CC2)NC(c2nccs2)=NC1c1ccc(F)cc1Br` (stereo unspecified), for which, in data set [1], the microsomal CLint is 12.8 µL/min/mg. The inhibition at 10 min, 10 µM on CYP2C9 was determined as 31.6%; on CYP2D6, 34%; at CYP3A, 17.1%; on CYP2C19 it was 15.3%; at CYP1A2 it was 8.9%. This molecule showed an inhibition at 10 µM against hERG (KCNH2) [2] of 72.7%. The solubility in data set [3] turned out to be 25.5 µg/mL (≈ 37.1 µM); in data set [13], 6.85 µg/mL (≈ 9.96 µM); in data set [15], 375 µg/mL (≈ 545 µM). The selectivity ratio in data set [4] stood at 1220. For the same molecule, the outcome in the data set with Hepatitis B virus [16], with Hepatitis B virus [6] and with Hepatitis B virus [7] was Active. Moreover, in data set [8], the remaining at 1 h came to 68%. Moreover, in [9], the CLint scaled is 11.5 mL/min/kg. Further, in [10], the half-life is 1.8 h. In addition, in data set [11], the CC50 is 29200 nM. Also, the inhibition at 1 µM on hERG (KCNH2) [12] is 15.7%. The EC50 in the data set on Hepatitis B virus [14] was found to be 20 nM.
For the molecule `CCOC(=O)C1=C(CN2CCOCC2)NC(c2nccs2)=NC1c1ccc(F)cc1Br` (stereo unspecified), the EC50 stood at 12 nM in the data set on Hepatitis B virus [17] and 7 nM in the data set on Hepatitis B virus [14]. Also, the microsomal CLint in data set [1] turned out to be 663 µL/min/mg. Also, the solubility is < 1.19 µg/mL in data set [3], < 1.19 µg/mL in data set [13] and 215 µg/mL (≈ 423 µM) in [15]. In addition, the Activity entry in the data set on Hepatitis B virus [18] is “Dose-Dependent Effect”. Further, the outcome in the data set on Hepatitis B virus [19] was Active. The remaining at 1 h in [8] stood at 0.1%. In addition, the CLint scaled in data set [9] stood at 596 mL/min/kg. The half-life in data set [10] turned out to be 0.035 h.

The inhibition is the percentage by which the read-out fell short of the control. As usually defined, the solubility is the concentration that dissolves in the medium under given conditions. Lower therefore signals little dissolved substance. The term half-life denotes the time needed for the level to fall by half in the phase considered. What is called CC50 is the concentration giving 50% cytotoxicity. One may read the EC50 as the concentration giving half of the maximal effect.
